Source: US20230313305A1, “METHODS AND USES OF INFLAMMATORY BOWEL DISEASE BIOMARKERS” (Washington University, priority 2017, published 2023)

Columns and labels:
[1] = test system: primary intestinal epithelial cells; assay: IL-17A added to primary cultured intestinal epithelial cells (microarray, qPCR); assay type: cell-based, mouse; conditions: 20 ng/ml IL-17A
Source text: Despite the important role of IL-17 in autoimmunity and inflammatory bowel disease (IBD) its function in the mucosa in disease is still unclear. In IBD, IL-17 is produced in part by mucosal pro-inflammatory Th17 cells. […] To investigate this possibility, we treated primary cultured intestinal epithelial cells with IL-17 and conducted transcriptomic analysis. […] This process was inhibited by PAI-1. […] This study identifies a new pathway in UC where dysregulated PAI-1 leads to exacerbated inflammation and disease activity by blocking an IL-17-tPA-TGF-β axis.
From colon epithelial lines n=4; Stem cells; Stem cells (2 days); DM; Colonocytes; With and without 20 ng/ml IL-17A.
We sought a marker of intestinal inflammation in IBD that is downstream of multiple inflammatory pathways. We first performed RNA microarray analysis on primary mouse intestinal epithelial cells treated these cells with IL-17 (a known important inflammatory cytokine in IBD). We cross-referenced a list of 23 molecules with enhanced mRNA production in these cells grown multiple states to lists of molecules with enhanced expression in IBD colon biopsies. We identified that the Plat/Serpine1 pathway was enriched. […]

[2] = test system: colon spheroids; assay: TGFβ on colon spheroids, serpine1/PAI-1 expression; assay type: cell-based; conditions: colon spheroids (FIG. 25)
Source text: FIG. 25. TGFβ drives serpine1/PAI-1 expression in the colon spheroids (negative feedback loop)

In the case of “IL-17: inflammatory cytokine added to primary intestinal epithelial cells”, the “production of tissue plasminogen activator (tPA) by epithelial cells” value [1] is reported as “induced”.
TGFβ was tested, and the serpine1/PAI-1 expression [2] was “drives”.
